Data as given in article PMC12520456, “Regulating Enzyme Activity via Microaggregates Mediated by Phase Separation” (Advanced Science, 2025).
Non-standard residues stand in square brackets, D forms with d. Residues, ends and D or L forms follow the SMILES beside them.

Assays:
[1] = test system: postoperative pancreatic fistula (POPF); test: Rat pancreatic splenic duct transection (non-lethal) POPF model; type: in vivo
Description: To investigate the biofunction of DPMD in preventing POPF, a slowly occurring POPF model was established in rats by transecting the peripancreatic splenic duct to induce a continuous but low leakage of pancreatic juice (Figure 3A). Following surgical modeling, DPMD, its L‐enantiomer LPMD, or normal saline (Ctrl) were topically applied on the incision site. After post operation, chymotrypsin leakage was assessed using a specific fluorescent dye. […] By monitoring ascitic and serum amylase and lipase levels over a span of 7 days following surgical modeling (Figure 3C), we were able to make inferences about the pathological score (Figure 3D) and the occurrence of POPF (Figure 3E). The noteworthy observation is that all the mock‐treated rats experienced POPF on day 3 following surgical modeling, and this phenomenon persisted until day 5 (Figure 3E). In contrast, LPMD reduced both the occurrence and severity of POPF, resulting in 33% of rats being healthy and only 67% experiencing minor POPF on day 3; furthermore, all rats fully recovered by day 5 (Figure 3E). […] Furthermore, both DPMD and LPMD treatments decreased inflammation markers including TNF‐α, IL‐6, IL‐8, IL‐33, sST2, CRP, HMGB1, MPO, PAF, PCT, PGE2, and SAA in rats’ serum (Figure 3G). […]
was performed using an Annexin V-Alexa Fluor 647/PI kit (Solarbio) according to the manufacturer’ s protocol. Briefly, adherent cells were detached with 0.25% EDTA-free trypsin, combined with floating cells from the supernatant. The pellet was washed twice with cold PBS and resuspended in 100 μL of 1× binding buffer. After adding Annexin V-647 and PI, cells were incubated for 15 min in the dark at room temperature. Samples were analyzed within 1h on a Sony MA900 flow cytometer.
3.12 Animal fluorescence imaging
Rats were intraperitoneally injected with 1 mL of rhodamine-labeled 0.5% (w/v) DPMD. […] The fluorescence emission intensity of the organs was measured using IVIS Spectrum system (PerkinElmer). […]

[2] = test system: Trypsin; test: Trypsin activity assay (BAEE); type: biochemical; details: Figure 2C
Description: Then, cells were co-incubated with Cy5-labeled proteins (trypsinCy5 and chymotrypsinCy5) and DPMD treated proteins Cy5 for 30 min. Subsequently, cells were washed thrice with PBS, fixed with 4% paraformaldehyde, and the nucleus was dyed with DAPI. Observations were performed using a confocal microscope (Olympus, FV3000). This experiment was repeated three independent times. The mean fluorescence intensity was measured using Image J software. The fluorescence values were calculated after background subtraction (fluorescence intensity of regions without cells).
3.8 Measurements of ThT fluorescence
The 0.5% (w/v) aqueous peptide solutions, enzyme solutions, and peptide-enzyme mixtures were supplemented with thioflavin T (ThT, 100 μM, Aladdin). ThT Fluorescence assay was measured on a Steady-state and lifetime Fluorescence Spectrometer (FLS1000). […]
(§1) and the product's absorbance at […] was dynamically and real-time monitored using a microplate […]
During the chymotrypsin activity assay, DPMD was incorporated into chymotrypsin. […] The reaction was carried out at 25 ℃, and the product's absorbance at 256 nm was dynamically and real-time monitored using a microplate reader. […]
NIH-3T3 cells were obtained from the National Collection of Authenticated Cell Cultures. […] Cell viability was evaluated by the CCK-8 assay (Dojindo) at 1-, 3-, 5-, and 7-days post-treatment. […]

[3] = test system: NIH-3T3 or HUVEC; test: Annexin V/PI apoptosis assay by flow cytometry; type: cell-based; details: 48 h; DPMD, also pre-incubated with trypsin or chymotrypsin; Figure S14B
Description: as §1
During the chymotrypsin activity assay, DPMD was incorporated into chymotrypsin. The final concentration of chymotrypsin was set at 10 μg/mL, and the final concentration of DPMD was 5 mg/mL. In the corresponding control group, an equal volume of the buffer solution prepared by the kit was added. Subsequently, the enzyme-peptide mixture was added to the reaction system containing the substrate N-Benzoyl-L-Tyrosine Ethyl Ester (BTEE) at a ratio of 1:100 (where the proportion of the enzyme-peptide mixture solution was 1) for the detection of enzyme activity. The reaction was carried out at 25 ℃, and the product's absorbance at 256 nm was dynamically and real-time monitored using a microplate reader. The experimental result was represented by the enzyme reaction's degree of completion. All the tests were repeated three independent times.
NIH-3T3 cells were obtained from the National Collection of Authenticated Cell Cultures. […] Cell viability was evaluated by the CCK-8 assay (Dojindo) at 1-, 3-, 5-, and 7-days post-treatment. […] The absorbance at 450 nm was recorded using a microplate reader […]
was performed using an Annexin V-Alexa Fluor 647/PI kit (Solarbio) according to the manufacturer’ s protocol. […] Samples were analyzed within 1h on a Sony MA900 flow cytometer.
3.12 Animal fluorescence imaging […]

CC[C@@H](C)[C@@H](NC(=O)[C@@H](CCC(N)=O)NC(=O)[C@H](NC(=O)[C@@H](Cc1ccc(O)cc1)NC(=O)CNC(=O)[C@@H](CC(C)C)NC(=O)[C@H](NC(=O)[C@@H](CO)NC(=O)CNC(=O)[C@@H](C)NC(=O)[C@@H](CC(=O)O)NC(=O)[C@@H](C)NC(=O)[C@@H](CCCNC(=N)N)NC(=O)[C@@H](C)NC(=O)[C@@H](CC(=O)O)NC(=O)[C@@H](C)NC(=O)[C@@H](CCCNC(=N)N)NC(=O)[C@@H](C)NC(=O)[C@@H](CC(=O)O)NC(=O)[C@@H](C)NC(=O)[C@@H](CCCNC(=N)N)NC(=O)[C@@H](C)NC(=O)[C@@H](CC(=O)O)NC(=O)[C@@H](C)NC(=O)[C@H](N)CCCNC(=N)N)C(C)C)[C@H](C)CC)C(=O)N[C@H](CCCNC(=N)N)C(=O)O [DPMD, Ac‐(D‐RADA)4‐CONH2] (H-[dR][dA][dD][dA][dR][dA][dD][dA][dR][dA][dD][dA][dR][dA][dD][dA]G[dS][dV][dL]G[dY][dI][dQ][dI][dR]-OH; N-terminus and C-terminus assumed)
H&E staining of pancreatic tissue ([1]; Figure S10): reduced edema and inflammatory cell infiltration
chymotrypsin leakage by fluorescent dye imaging ([1]; topical application at incision site, Figure 3B): nearly complete suppression of leakage
serum inflammation markers (TNF-α, IL-6, IL-8, IL-33, sST2, CRP, HMGB1, MPO, PAF, PCT, PGE2, SAA) ([1]; within 7 days after surgery, Figure 3G): decreased
suppression of enzymatic activity of Trypsin [2]: almost complete extent
apoptosis or necrosis (Annexin V/PI) [3]: no increase in apoptosis or necrosis
